One experiment has as its system alpha-chymotrypsin. The class given is biochemical, human. The settings on record: read-out: IC50 Chymo-trypsin.
The next experiment concerns the target MERS-CoV 3CLpro (Middle East respiratory syndrome-related coronavirus, UniProt K9N7C7). The class given is biochemical.
In another experiment the target is SARS-CoV-2 3CLpro (Severe acute respiratory syndrome coronavirus 2, UniProt P0DTD1). The class given is biochemical.

pIC50: −log10 of the molar value.

The values that follow come from article PMC10105399 (European Journal of Medicinal Chemistry, 2023).

Chain of MERS-CoV 3CLpro (K9N7C7 3248-3553 limits assumed): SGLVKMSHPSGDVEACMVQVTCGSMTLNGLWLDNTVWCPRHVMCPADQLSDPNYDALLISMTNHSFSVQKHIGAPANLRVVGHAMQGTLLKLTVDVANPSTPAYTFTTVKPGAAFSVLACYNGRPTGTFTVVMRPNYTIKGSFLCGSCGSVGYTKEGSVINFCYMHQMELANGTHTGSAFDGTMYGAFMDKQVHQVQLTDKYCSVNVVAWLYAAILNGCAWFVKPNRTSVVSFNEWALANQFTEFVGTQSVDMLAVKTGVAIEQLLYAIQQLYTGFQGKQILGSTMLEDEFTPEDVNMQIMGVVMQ

Usually pIC50 stands for the IC50 on a negative log10 scale, so that one unit is a factor of ten. Regarding `CC(C)C[C@H](NC(=O)OCC(C)(C)Oc1ccc(F)cc1)C(=O)N[C@H](C=O)C[C@@H]1CCNC1=O` [15c, 2-(4-Fluorophenoxy)-2-methylpropyl ((S)-4-methyl-1-oxo-1-(((S)-1-oxo-3-((S)-2-oxopyrrolidin-3-yl)propan-2-yl)amino)pentan-2-yl)carbamate], the pIC50 in the experiment with alpha-chymotrypsin is below 4.30.
`CC(C)C[C@H](NC(=O)OCC(C)(C)Sc1ccccc1)C(=O)N[C@@H](C[C@@H]1CCNC1=O)C(=O)C(=O)NC1CC1` [1e, 2-Methyl-2-(phenylthio)propyl ((S)-1-(((S)-4-(cyclopropylamino)-3,4-dioxo-1-((S)-2-oxopyrrolidin-3-yl)butan-2-yl)amino)-4-methyl-1-oxopentan-2-yl)carbamate]: the pIC50 in the experiment with alpha-chymotrypsin was below 4.30.
As for `CC(C)C[C@H](NC(=O)OCC(C)(C)Sc1ccccc1)C(=O)N[C@H](C=O)C[C@@H]1CCNC1=O` [1c, 2-Methyl-2-(phenylthio)propyl ((S)-4-methyl-1-oxo-1-(((S)-1-oxo-3-((S)-2-oxopyrrolidin-3-yl)propan-2-yl)amino)pentan-2-yl)carbamate], the “fold higher potency than 8c against MERS-CoV 3CLpro” value on MERS-CoV 3CLpro is reported as around 2 fold. In addition, on SARS-CoV-2 3CLpro, the “fold higher potency than 8c against SARS-CoV-2 3CLpro” value stood at 4.6 fold. Besides, in the experiment on alpha-chymotrypsin, the pIC50 is below 4.30.
Consider `CC(C)C[C@H](NC(=O)OCC(C)(C)Sc1ccccc1)C(=O)N[C@H](C#N)C[C@@H]1CCNC1=O` [1g, 2-Methyl-2-(phenylthio)propyl ((S)-1-(((S)-1-cyano-2-((S)-2-oxopyrrolidin-3-yl)ethyl)amino)-4-methyl-1-oxopentan-2-yl)carbamate], for which the pIC50 in the experiment with alpha-chymotrypsin is below 4.30.
For the molecule `[2H]C([2H])(OC(=O)N[C@@H](CC(C)C)C(=O)N[C@H](C=O)C[C@@H]1CCNC1=O)C(C)(C)Sc1ccccc1` [2c, 2-Methyl-2-(phenylthio)propyl-1,1-d2 ((S)-4-methyl-1-oxo-1-(((S)-1-oxo-3-((S)-2-oxopyrrolidin-3-yl)propan-2-yl)amino)pentan-2-yl)carbamate], the pIC50 with alpha-chymotrypsin was below 4.30.
Turning to `CC(C)C[C@H](NC(=O)OCC(C)(C)Oc1ccccc1)C(=O)N[C@H](C=O)C[C@@H]1CCNC1=O` [10c, 2-Methyl-2-phenoxypropyl ((S)-4-methyl-1-oxo-1-(((S)-1-oxo-3-((S)-2-oxopyrrolidin-3-yl)propan-2-yl)amino)pentan-2-yl)carbamate], on MERS-CoV 3CLpro, the “fold more potent than 1c against MERS-CoV 3CLpro” value came out at 2 fold. The “fold less active than 1c against SARS-CoV-2 3CLpro” value on SARS-CoV-2 3CLpro is on record as “more than 4 fold”.
Consider `CC(C)C[C@H](NC(=O)OCC(C)(C)Sc1nc2ccccc2[nH]1)C(=O)N[C@H](C=O)C[C@@H]1CCNC1=O` [9c, 2-((1H-benzo[d]imidazole-2-yl)thio)-2-methylpropyl ((S)-4-methyl-1-oxo-1-(((S)-1-oxo-3-((S)-2-oxopyrrolidin-3-yl)propan-2-yl)amino)pentan-2-yl)carbamate], for which the “fold reduction in potency relative to 1c against MERS-CoV 3CLpro” value on MERS-CoV 3CLpro is 1.5 fold. Also, the “fold less active than 1c against SARS-CoV-2 3CLpro” value at SARS-CoV-2 3CLpro was “more than 4 fold”.
Regarding `CC(C)C[C@H](NC(=O)OCC(C)(C)Sc1cccc(Cl)c1)C(=O)N[C@H](C=O)C[C@@H]1CCNC1=O` [7c, 2-((3-Chlorophenyl)thio)-2-methylpropyl ((S)-4-methyl-1-oxo-1-(((S)-1-oxo-3-((S)-2-oxopyrrolidin-3-yl)propan-2-yl)amino)pentan-2-yl)carbamate], in the experiment on alpha-chymotrypsin, the pIC50 was below 4.30.
As for `[2H]C([2H])(OC(=O)N[C@@H](CC(C)C)C(=O)N[C@H](C=O)C[C@@H]1CCNC1=O)C(C)(C)Oc1ccc(Cl)cc1` [12c, 2-(4-Chlorophenoxy)-2-methylpropyl-1,1-d2 ((S)-4-methyl-1-oxo-1-(((S)-1-oxo-3-((S)-2-oxopyrrolidin-3-yl)propan-2-yl)amino)pentan-2-yl)carbamate], in the experiment on alpha-chymotrypsin, the pIC50 was below 4.30.
Turning to `CC(C)C[C@H](NC(=O)OCC(C)(C)Oc1cccc(Cl)c1)C(=O)N[C@H](C=O)C[C@@H]1CCNC1=O` [13c, 2-(3-Chlorophenoxy)-2-methylpropyl ((S)-4-methyl-1-oxo-1-(((S)-1-oxo-3-((S)-2-oxopyrrolidin-3-yl)propan-2-yl)amino)pentan-2-yl)carbamate], in the experiment on alpha-chymotrypsin, the pIC50 is below 4.30.
